For assay [1], the target named is Receptor tyrosine-protein kinase erbB-2 (Homo sapiens, UniProt P04626). Kind of assay: Inhibition of HER2 (unknown origin).
In assay [2] the target is Protein-tyrosine kinase 2-beta (Homo sapiens, UniProt Q14289). Nature of the assay: Inhibition of Pyk2 (unknown origin).
In assay [3] the target is RAC-alpha serine/threonine-protein kinase (Homo sapiens, UniProt P31749). Nature of the assay: Inhibition of Akt1 (unknown origin).
The target of assay [4] is Proto-oncogene tyrosine-protein kinase Src (Homo sapiens, UniProt P12931). Nature of the assay: Inhibition of Src (unknown origin).
In assay [5] the target is Dual specificity mitogen-activated protein kinase kinase 1 (Homo sapiens, UniProt Q02750). Nature of the assay: Inhibition of MEK1 (unknown origin).
Assay [6] deals with Mitogen-activated protein kinase 14 (Homo sapiens, UniProt Q16539). Nature of the assay: Inhibition of p38alpha (unknown origin).
Assay [7] has as its target Aurora kinase B (Homo sapiens, UniProt Q96GD4). Nature of the assay: Inhibition of aurora-B (unknown origin).
For assay [8], the target named is T1, Focal adhesion kinase 1 (Homo sapiens, UniProt Q05397).
Assay [9] addresses T1, Focal adhesion kinase 1. The source holds these as a separate data set.

The structures appear in SMILES notation. Some results are limits rather than exact numbers.

Aurora kinase B, sequence (Q96GD4 whole entry): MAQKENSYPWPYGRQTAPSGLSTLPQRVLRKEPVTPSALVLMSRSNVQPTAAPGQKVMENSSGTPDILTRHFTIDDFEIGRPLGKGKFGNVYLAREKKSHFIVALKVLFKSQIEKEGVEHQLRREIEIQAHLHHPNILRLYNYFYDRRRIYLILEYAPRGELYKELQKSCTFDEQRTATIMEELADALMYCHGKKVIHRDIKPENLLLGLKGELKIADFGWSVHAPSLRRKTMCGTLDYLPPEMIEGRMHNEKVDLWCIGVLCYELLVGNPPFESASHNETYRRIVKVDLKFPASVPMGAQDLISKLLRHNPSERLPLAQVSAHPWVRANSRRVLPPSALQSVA
Receptor tyrosine-protein kinase erbB-2, sequence (P04626 whole entry): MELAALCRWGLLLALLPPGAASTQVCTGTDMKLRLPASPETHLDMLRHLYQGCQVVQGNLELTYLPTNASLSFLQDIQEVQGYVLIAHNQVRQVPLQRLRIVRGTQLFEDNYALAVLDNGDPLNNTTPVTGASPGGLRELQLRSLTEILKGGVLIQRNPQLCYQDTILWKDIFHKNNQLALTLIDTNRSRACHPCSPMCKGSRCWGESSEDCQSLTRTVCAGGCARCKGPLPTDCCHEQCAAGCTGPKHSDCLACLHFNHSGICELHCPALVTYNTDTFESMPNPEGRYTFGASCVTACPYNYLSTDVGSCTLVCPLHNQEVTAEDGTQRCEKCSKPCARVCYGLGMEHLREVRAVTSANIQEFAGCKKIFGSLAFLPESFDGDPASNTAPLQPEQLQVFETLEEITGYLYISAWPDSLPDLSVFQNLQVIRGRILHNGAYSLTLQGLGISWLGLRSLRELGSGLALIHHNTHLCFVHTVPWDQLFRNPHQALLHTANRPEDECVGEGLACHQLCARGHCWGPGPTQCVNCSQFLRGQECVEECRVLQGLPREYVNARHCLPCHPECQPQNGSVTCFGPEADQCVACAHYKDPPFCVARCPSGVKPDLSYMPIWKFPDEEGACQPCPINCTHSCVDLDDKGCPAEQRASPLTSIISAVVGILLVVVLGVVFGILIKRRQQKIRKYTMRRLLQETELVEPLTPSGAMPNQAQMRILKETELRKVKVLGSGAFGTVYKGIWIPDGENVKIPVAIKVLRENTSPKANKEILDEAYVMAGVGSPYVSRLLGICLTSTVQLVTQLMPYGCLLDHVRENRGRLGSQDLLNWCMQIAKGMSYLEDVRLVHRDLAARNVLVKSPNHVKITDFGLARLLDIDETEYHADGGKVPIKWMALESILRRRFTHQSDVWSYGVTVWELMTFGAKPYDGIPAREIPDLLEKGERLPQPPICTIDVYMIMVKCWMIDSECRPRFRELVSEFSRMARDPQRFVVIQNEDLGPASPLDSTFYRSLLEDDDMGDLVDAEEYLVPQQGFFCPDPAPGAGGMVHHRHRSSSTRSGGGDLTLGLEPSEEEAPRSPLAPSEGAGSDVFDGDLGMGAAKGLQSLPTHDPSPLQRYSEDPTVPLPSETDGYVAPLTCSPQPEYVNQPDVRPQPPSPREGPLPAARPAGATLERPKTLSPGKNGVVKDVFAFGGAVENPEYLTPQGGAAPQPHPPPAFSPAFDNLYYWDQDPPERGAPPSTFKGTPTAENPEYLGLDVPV
Proto-oncogene tyrosine-protein kinase Src, sequence (P12931 2-536 limits assumed): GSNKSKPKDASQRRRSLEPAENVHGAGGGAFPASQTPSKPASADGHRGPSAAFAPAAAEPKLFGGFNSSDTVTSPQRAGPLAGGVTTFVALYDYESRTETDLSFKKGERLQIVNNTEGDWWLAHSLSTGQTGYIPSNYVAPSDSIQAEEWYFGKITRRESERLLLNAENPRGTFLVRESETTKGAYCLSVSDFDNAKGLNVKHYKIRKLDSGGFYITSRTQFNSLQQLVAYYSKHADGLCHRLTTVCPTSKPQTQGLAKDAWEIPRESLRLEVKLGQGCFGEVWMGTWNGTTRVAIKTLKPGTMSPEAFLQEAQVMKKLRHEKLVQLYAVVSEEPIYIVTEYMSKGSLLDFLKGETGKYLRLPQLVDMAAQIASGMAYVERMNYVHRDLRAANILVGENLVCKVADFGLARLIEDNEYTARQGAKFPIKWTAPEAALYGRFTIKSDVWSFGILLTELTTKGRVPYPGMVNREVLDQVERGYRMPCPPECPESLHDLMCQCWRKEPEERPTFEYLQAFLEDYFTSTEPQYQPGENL
Dual specificity mitogen-activated protein kinase kinase 1, sequence (Q02750 whole entry): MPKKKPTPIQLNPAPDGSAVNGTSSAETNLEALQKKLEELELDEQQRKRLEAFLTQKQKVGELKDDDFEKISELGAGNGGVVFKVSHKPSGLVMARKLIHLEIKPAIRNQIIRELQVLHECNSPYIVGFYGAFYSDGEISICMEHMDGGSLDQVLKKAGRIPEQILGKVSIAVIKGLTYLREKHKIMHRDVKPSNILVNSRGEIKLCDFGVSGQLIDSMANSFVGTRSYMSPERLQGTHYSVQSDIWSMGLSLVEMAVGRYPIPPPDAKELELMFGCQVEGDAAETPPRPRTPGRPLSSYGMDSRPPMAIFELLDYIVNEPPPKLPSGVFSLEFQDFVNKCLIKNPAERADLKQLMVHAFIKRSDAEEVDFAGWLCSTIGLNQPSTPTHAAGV
T1 sequence (Q05397 whole entry): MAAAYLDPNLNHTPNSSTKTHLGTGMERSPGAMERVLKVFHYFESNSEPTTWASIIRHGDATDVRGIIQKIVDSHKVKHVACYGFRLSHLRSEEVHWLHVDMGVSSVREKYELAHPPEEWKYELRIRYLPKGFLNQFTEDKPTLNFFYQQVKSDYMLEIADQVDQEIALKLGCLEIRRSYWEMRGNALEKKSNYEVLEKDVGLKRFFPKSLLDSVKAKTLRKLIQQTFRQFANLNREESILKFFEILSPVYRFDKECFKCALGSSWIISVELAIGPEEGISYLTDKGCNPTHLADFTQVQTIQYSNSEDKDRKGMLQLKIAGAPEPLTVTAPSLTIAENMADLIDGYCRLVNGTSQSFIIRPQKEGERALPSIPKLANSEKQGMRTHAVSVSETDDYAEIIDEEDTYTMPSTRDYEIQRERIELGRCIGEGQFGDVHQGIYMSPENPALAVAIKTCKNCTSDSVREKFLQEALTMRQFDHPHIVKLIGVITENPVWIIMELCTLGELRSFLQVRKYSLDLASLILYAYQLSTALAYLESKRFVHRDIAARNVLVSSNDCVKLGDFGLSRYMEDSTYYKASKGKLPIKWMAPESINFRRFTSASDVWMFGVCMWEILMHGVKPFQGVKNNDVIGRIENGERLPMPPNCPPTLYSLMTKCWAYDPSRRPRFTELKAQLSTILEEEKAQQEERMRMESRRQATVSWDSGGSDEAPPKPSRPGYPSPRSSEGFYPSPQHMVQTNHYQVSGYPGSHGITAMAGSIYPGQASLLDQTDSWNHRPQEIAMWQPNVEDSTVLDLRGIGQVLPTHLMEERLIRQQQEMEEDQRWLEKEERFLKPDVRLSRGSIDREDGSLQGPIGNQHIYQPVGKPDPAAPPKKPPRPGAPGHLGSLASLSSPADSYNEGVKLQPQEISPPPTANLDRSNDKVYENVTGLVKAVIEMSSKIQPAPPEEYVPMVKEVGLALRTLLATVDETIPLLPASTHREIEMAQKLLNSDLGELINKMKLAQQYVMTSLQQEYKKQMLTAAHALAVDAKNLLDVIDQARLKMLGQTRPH
Mitogen-activated protein kinase 14, sequence (Q16539 whole entry): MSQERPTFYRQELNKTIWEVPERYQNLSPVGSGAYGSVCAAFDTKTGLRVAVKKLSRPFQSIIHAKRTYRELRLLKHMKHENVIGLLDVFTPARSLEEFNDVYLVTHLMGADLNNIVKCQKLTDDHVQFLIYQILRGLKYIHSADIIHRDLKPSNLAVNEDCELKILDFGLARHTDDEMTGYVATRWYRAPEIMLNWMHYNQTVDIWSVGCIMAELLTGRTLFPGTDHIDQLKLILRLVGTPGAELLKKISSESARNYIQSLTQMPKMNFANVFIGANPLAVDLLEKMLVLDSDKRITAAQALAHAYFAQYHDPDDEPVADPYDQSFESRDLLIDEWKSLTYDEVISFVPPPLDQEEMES
RAC-alpha serine/threonine-protein kinase, sequence (P31749 whole entry): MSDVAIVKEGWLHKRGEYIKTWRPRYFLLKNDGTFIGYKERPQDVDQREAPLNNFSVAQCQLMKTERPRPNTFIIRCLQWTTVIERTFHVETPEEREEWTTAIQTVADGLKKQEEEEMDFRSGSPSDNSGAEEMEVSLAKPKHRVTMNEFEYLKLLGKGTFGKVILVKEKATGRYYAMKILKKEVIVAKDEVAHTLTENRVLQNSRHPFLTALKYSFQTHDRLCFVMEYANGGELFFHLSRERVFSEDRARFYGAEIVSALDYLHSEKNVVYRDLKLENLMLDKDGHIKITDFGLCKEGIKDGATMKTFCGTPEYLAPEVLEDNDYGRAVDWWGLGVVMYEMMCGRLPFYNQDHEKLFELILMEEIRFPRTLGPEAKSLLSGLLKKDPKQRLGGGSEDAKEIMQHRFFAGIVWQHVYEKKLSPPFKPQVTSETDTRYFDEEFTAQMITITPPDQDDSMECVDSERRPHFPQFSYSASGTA

Consider `CN1c2ccc(NCc3ccc(C(C)(C)C)cc3)cc2-c2c(cnn2C)S1(=O)=O`, for which the IC50 in [1], in assay [2], in assay [3], in assay [4], in [5] and in [6] was above 10 µM in each case. In assay [7], this compound yielded an IC50 above 10 µM.
As for `CCc1ccc(-c2ccc3c(c2)-c2c(cnn2C)S(=O)(=O)N3C)cc1`, the IC50 in assay [1], in assay [2], in [3], in assay [4], in [5] and in assay [6] was above 10 µM in each case. Moreover, the concentration for half-maximal inhibition (IC50) in assay [7] is above 10 µM; in assay [8], 0.42 µM; in assay [9], 0.077 µM.
For the compound `CCc1ccc(-c2ccc3c(c2)-c2c(cnn2CC)S(=O)(=O)N3C)cc1`, the half-maximal inhibitory concentration (IC50) in [9] worked out at 2.1 µM.
On the same count and under the same terms, in the case of `CN1c2ccc(C(=O)Nc3ccc(F)cc3)cc2-c2c(cnn2C)S1(=O)=O` it was above 30 µM; in that of `CCc1ccc(-c2ccc3c(c2)-c2nn(C)cc2S(=O)(=O)N3C)cc1`, above 30 µM.
Consider `CCc1ccc(-c2ccc3c(c2)-c2n[nH]cc2S(=O)(=O)N3C)cc1`, for which the concentration for half-maximal inhibition (IC50) in [1] was above 10 µM; in [3], above 10 µM; in assay [4] it was above 10 µM; in assay [5] it was 8.6 µM; in [6], above 10 µM; in assay [7], 5.1 µM.

Values taken from ChEMBL document CHEMBL2331389, “Structure-based discovery of cellular-active allosteric inhibitors of FAK” (Bioorg Med Chem Lett, 2013).
